This assay relates to RSV strain A2. Kind of assay: RSV antiviral cytoprotection assay in Hep2 cells (96-well and 384-well format, Cell TiterGlo read-out). It counts as cell-based, Respiratory Syncytial Virus (RSV). The conditions noted are these: human respiratory syncytial virus; for inhibition at 0.5 µM: HEp-2, 0.5 uM; for EC50: HEp-2, RSV-induced cytopathic effects, Hep2 cells, class symbols.
Where [1] appears, read: RSV-induced cytopathic effect in Hep2 cells, calculated from fitted dose response curve, normalized to 0% and 100%.

This passage reports inhibition and EC50 results from patent US9238039B2, “Pyrazolo[1,5-A]pyrimidines for antiviral treatment” (Gilead Sciences, Inc., priority 2010, dated 2016).

Molecules are shown by their SMILES.

With `Cc1cc(C2CC2)nc2cc([C@@H]3CCCCN3C(=O)c3cc(F)c(F)cc3NS(C)(=O)=O)nn12` [Compound 117], the EC50 is 0.1 to 100 nM. Moreover, the inhibition at 0.5 µM under setting [1] is 99%.
For `CS(=O)(=O)Nc1ccc(Cl)cc1C(=O)N1CCCC[C@H]1c1cc2nc(C3CC3)cc(N3CCC3)n2n1` [Compound 64], the EC50 lay in the range of 0.1 to 100 nM. Besides, under setting [1], the inhibition at 0.5 µM is 98%.
Taken in the same sequence, the figures for `Cc1ccc(NS(C)(=O)=O)c(C(=O)N2CCCC[C@H]2c2cc3nc(C)c(C)c(C4CC4)n3n2)c1` [Compound 87] were 101 to 1000 nM and 84%.
Regarding `Cc1cn2nc([C@@H]3CCCCN3C(=O)c3cc(C)n(C)n3)cc2nc1N1CC[C@H](N)C1` [Compound 280], the concentration giving a half-maximal response (EC50) was 101 to 1000 nM. Also, the inhibition at 0.5 µM under setting [1] is 60%.
In the case of `Cc1cn2nc([C@@H]3CCCCN3C(=O)c3cnn(C4CCCC4)c3)cc2nc1N1CC[C@H](N)C1` [Compound 366], the EC50 was 0.1 to 100 nM. In addition, under setting [1], the inhibition at 0.5 µM was 100%.
Take `CC(=O)Nc1ccc(Cl)cc1C(=O)N1CCCC[C@H]1c1cc2nc(N3CC(N)C3)c(C)cn2n1` [Compound 248]: the EC50 fell in the range of 0.1 to 100 nM. The inhibition at 0.5 µM under setting [1] is 100%.
Taken in the same sequence, the figures for `Cc1cn2nc([C@@H]3CCCCN3C(=O)c3ncc(F)cc3F)cc2nc1N1CC[C@H](N)C1` [Compound 310] were 0.1 to 100 nM and 100%.
Taken in the same sequence, the figures for `Cc1ccc(NS(C)(=O)=O)c(C(=O)N2CCCC[C@H]2c2cc3nc(C4CC4)cc(N4CCOCC4)n3n2)c1` [Compound 62] were 0.1 to 100 nM and 100%.
Take `Cc1cccc(C(=O)N2CCCC[C@H]2c2cc3nc(N4CC[C@H](N)C4)c(C)cn3n2)c1` [Compound 157]: the EC50 is 0.1 to 100 nM. Besides, the inhibition at 0.5 µM under setting [1] is 100%.
Turning to `CS(=O)(=O)Nc1ccc(Cl)cc1C(=O)N1CCCC[C@H]1c1cc2nc(N3CCC3)cc(N3CCSC3)n2n1` [Compound 106], the 50% effective concentration (EC50) fell in the range of 0.1 to 100 nM. Under setting [1], the inhibition at 0.5 µM is 100%.
Turning to `Cc1cn2nc([C@@H]3CCCCN3C(=O)c3c4c(nn3C)CCCC4)cc2nc1N1CC[C@H](N)C1` [Compound 367], the half-maximal effective concentration (EC50) was in the range of 0.1 to 100 nM. The inhibition at 0.5 µM under setting [1] was 94%.
Regarding `CS(=O)(=O)Nc1ccc(Cl)cc1C(=O)N1CCCC[C@H]1c1cc2nc(N3CCC3)cc(N3CC4(COC4)C3)n2n1` [Compound 75], the EC50 lay within 0.1 to 100 nM. Moreover, the inhibition at 0.5 µM under setting [1] is 100%.
For `Cc1ccc(C(=O)N2CCCC[C@H]2c2cc3nc(N4CC[C@H](N)C4)c(C)cn3n2)s1` [Compound 286], the EC50 fell in the range of 0.1 to 100 nM. Also, the inhibition at 0.5 µM under setting [1] was 100%.
Taken in the same sequence, the figures for `Cc1ccccc1C(=O)N1CCCC[C@H]1c1cc2nc(N3CC[C@H](N)C3)c(C)cn2n1` [Compound 158] were 0.1 to 100 nM and 100%.
Take `CC#Cc1cc(N2CCOCC2)n2nc([C@@H]3CCCCN3C(=O)c3cc(Cl)ccc3NS(C)(=O)=O)cc2n1` [Compound 110]: the EC50 was in the range of 0.1 to 100 nM. The inhibition at 0.5 µM under setting [1] is 100%.
For `CC(=O)Nc1ccc(C)cc1C(=O)N1CCCC[C@H]1c1cc2nc(N3CC(O)C3)c(C)cn2n1` [Compound 221], in that order: 0.1 to 100 nM and 100%.
Consider `CS(=O)(=O)Nc1ccc(Cl)cc1C(=O)N1CCCC[C@H]1c1cc2nc(N3CCC3)cc(N3CC(N)C3)n2n1` [Compound 133], for which the EC50 lay in the range of 0.1 to 100 nM. Besides, the inhibition at 0.5 µM under setting [1] was 96%.
For `CS(=O)(=O)Nc1ccc(Cl)cc1C(=O)N1CCCC[C@H]1c1cc2nc(C3CCC3)cc(N3CCOCC3)n2n1` [Compound 73], in that order: 0.1 to 100 nM and 99%.
Taken in the same sequence, the figures for `Cc1cn2nc([C@@H]3CCCCN3C(=O)c3cc(Cl)ccc3NS(C)(=O)=O)cc2nc1N1CCC(C#N)CC1` [Compound 215] were 0.1 to 100 nM and 99%.
Consider `Cc1cn2nc([C@@H]3CCCCN3C(=O)c3ccnn3CC(F)(F)F)cc2nc1N1CC[C@H](N)C1` [Compound 401], for which the EC50 is 0.1 to 100 nM. Under setting [1], the inhibition at 0.5 µM is 100%.
In the case of `Cc1cn2nc([C@@H]3CCCCN3C(=O)c3cc4ccccn4n3)cc2nc1N1CC[C@H](N)C1` [Compound 312], the EC50 is 0.1 to 100 nM. The inhibition at 0.5 µM under setting [1] was 100%.
In the case of `COc1cc(Cl)cc(C(=O)N2CCCC[C@H]2c2cc3nc(N4CC[C@H](N)C4)c(C)cn3n2)c1` [Compound 376], the EC50 lay in the range of 0.1 to 100 nM. Moreover, the inhibition at 0.5 µM under setting [1] is 100%.
For the compound `CS(=O)(=O)Nc1ccc(Cl)cc1C(=O)N1CCCC[C@H]1c1cc2nc(N3CCC3)cc(N3CCNCC3)n2n1` [Compound 45], the concentration giving a half-maximal response (EC50) is 0.1 to 100 nM. Also, the inhibition at 0.5 µM under setting [1] is 100%.
As to `CC(=O)c1cccc(C(=O)N2CCCC[C@H]2c2cc3nc(N4CC[C@H](N)C4)c(C)cn3n2)c1` [Compound 318], the EC50 lay in the range of 0.1 to 100 nM. Also, under setting [1], the inhibition at 0.5 µM was 100%.
Consider `CS(=O)(=O)Nc1ccc(Cl)cc1C(=O)N1CCCC[C@H]1c1cc2nc(N3CC(O)C3)cc(N3CCOCC3)n2n1` [Compound 69], for which the EC50 lay within 0.1 to 100 nM. The inhibition at 0.5 µM under setting [1] is 100%.
With `Cc1cn2nc([C@@H]3CCCCN3C(=O)c3cscn3)cc2nc1N1CC[C@H](N)C1` [Compound 270], the half-maximal effective concentration (EC50) lay in the range of 101 to 1000 nM. For the same compound, under setting [1], the inhibition at 0.5 µM is 82%.
For `CS(=O)(=O)Nc1ccc(Cl)cc1C(=O)N1CCCC[C@H]1c1cc2nc(N3CCC3)cc(N3CCCNCC3)n2n1` [Compound 156], in that order: 0.1 to 100 nM and 100%.
For `Cc1cn2nc([C@@H]3CCCCN3C(=O)c3ccccc3OC(F)F)cc2nc1N1CC[C@H](N)C1` [Compound 379], the EC50 lay in the range of 0.1 to 100 nM. Moreover, under setting [1], the inhibition at 0.5 µM was 100%.
For `Cc1cn2nc([C@@H]3CCCCN3C(=O)c3ccnc(-n4cnnc4)c3)cc2nc1N1CC[C@H](N)C1` [Compound 388], in that order: 0.1 to 100 nM and 100%.
As to `CCCn1nc(C)cc1C(=O)N1CCCC[C@H]1c1cc2nc(N3CC[C@H](N)C3)c(C)cn2n1` [Compound 329], the EC50 lay in the range of 0.1 to 100 nM. Moreover, the inhibition at 0.5 µM under setting [1] is 98%.
Consider `Cc1ccc(NS(C)(=O)=O)c(C(=O)N2CCCC(C)C2c2cc3nc(C)c(C)cn3n2)c1` (stereo not shown) [Compound 36], for which the EC50 lay in the range of 0.1 to 100 nM. Under setting [1], the inhibition at 0.5 µM is 90%.
Consider `CC(=O)Nc1ccc(F)cc1C(=O)N1CCCC[C@H]1c1cc2[nH]c(C)c(C)c(=O)n2n1` [Compound 16], for which the half-maximal effective concentration (EC50) is 0.1 to 100 nM. Also, under setting [1], the inhibition at 0.5 µM is 89%. Moreover, for the setting “HEp-2, 1 uM, RSV-induced cytopathic effect in Hep2 cells, calculated from fitted dose response curve, normalized to 0% and 100%”, the inhibition at 1 µM was 97%.
On to `Cc1cn2nc([C@@H]3CCCCN3C(=O)c3cccc(C)c3Cl)cc2nc1N1CC[C@H](N)C1` [Compound 334], for which the EC50 lay in the range of 0.1 to 100 nM. Besides, the inhibition at 0.5 µM under setting [1] is 100%.
For the compound `C[C@@H]1CN(c2cc(N3CCC3)nc3cc([C@@H]4CCCCN4C(=O)c4cc(Cl)ccc4NS(C)(=O)=O)nn23)C[C@H](C)O1` [Compound 107], the EC50 fell in the range of 0.1 to 100 nM. The inhibition at 0.5 µM under setting [1] was 100%.
With `Cc1cn2nc([C@@H]3CCCCN3C(=O)c3cccc4nnnn34)cc2nc1N1CC[C@H](N)C1` [Compound 316], the concentration giving a half-maximal response (EC50) is 0.1 to 100 nM. Besides, the inhibition at 0.5 µM under setting [1] was 100%.
For `CS(=O)(=O)Nc1ccc(Cl)cc1C(=O)N1CCCC[C@H]1c1cc2nc(N3CCC3)cc(N3CC(N)C(C(=O)N4CCC4)C3)n2n1` (stereo partly shown) [Compound 164], in that order: 0.1 to 100 nM and 100%.
